We go through seven molecules from ChEMBL document CHEMBL1130089 (J Med Chem, 1997).

Activity calls are given as the source filed them. No cut-off for these calls is given here. Where only a bound is given, the exact number is not on record here.

Assay [1] addresses T1, Estrogen receptor (Homo sapiens, UniProt Q92731+P03372).
Description: Relative affinity constant for cytosolic estrogen receptor
The target of assay [2] is T1, Estrogen receptor. Description: Agonist transcriptional activation in MVLN cells relative to 0.1 nM estradiol. The class given is functional, cell-based.
For assay [3], the target named is T1, Estrogen receptor. Nature of the assay: Irreversible inhibition of [3H]estradiol binding to estrogen receptor; (-) indicates decrease in estradiol binding sites inactivated by the compound. The class given is protein assay.
Assay [4] deals with T1, Estrogen receptor. Description: Compound concentration required to induce transcriptional activation in MVLN cells comparable to 50% of 0.1 nM estradiol response. The class given is functional, cell-based.
Assay [5] has as its target T1, Estrogen receptor. Description: Compound concentration required to induce transcriptional activation in MVLN cells equal to 50% of 0.1 nM estradiol response. The class given is functional, cell-based.
In assay [6] the target is T1, Estrogen receptor. This is another data set of the same source.

A word on the EC50: it is the concentration needed to bring the measured effect to its halfway point. The low end stands for higher potency in that assay, the high end for lower potency in that assay. In the case of `C[C@]12C[C@H](CCOS(C)(=O)=O)[C@@H]3c4ccc(O)cc4CC[C@H]3[C@@H]1CC[C@@H]2O`, the RAC on Estrogen receptor [1] was determined as 8.15. This molecule also came in with an Activity at Estrogen receptor [2] of 95%. The Covalent binding result at Estrogen receptor [3] was “inactive”. This molecule also displayed an EC50 on Estrogen receptor [4] of 6 nM.
The term IC50 denotes the point on the concentration scale where inhibition reaches its midpoint. Regarding `C[C@]12C[C@H](CCCCBr)[C@@H]3c4ccc(O)cc4CC[C@H]3[C@@H]1CC[C@@H]2O`, the RAC at Estrogen receptor [1] is 11. For the same molecule, the Covalent binding result at Estrogen receptor [3] was “inactive”. For the same molecule, the 50% inhibitory concentration (IC50) on Estrogen receptor [5] worked out at 3 nM.
For `C[C@]12C[C@H](CCCCNC(=O)CBr)[C@@H]3c4ccc(O)cc4CC[C@H]3[C@@H]1CC[C@@H]2O`, in that order: 1.64, “inactive” and 320 nM.
The matching figures for `C[C@]12C[C@H](CCCCOS(C)(=O)=O)[C@@H]3c4ccc(O)cc4CC[C@H]3[C@@H]1CC[C@@H]2O`: 36.8, “inactive” and 6 nM.
Turning to `C=CCC[C@H]1C[C@]2(C)[C@@H](O)CC[C@H]2[C@@H]2CCc3cc(O)ccc3[C@@H]12`, at Estrogen receptor [1], the RAC is 38.6. Moreover, at Estrogen receptor [2], the Activity turned out to be 80%. Moreover, at Estrogen receptor [4], the EC50 is reported as less than 10 nM.
As for `C[C@]12C[C@H](CCNC(=O)CBr)[C@@H]3c4ccc(O)cc4CC[C@H]3[C@@H]1CC[C@@H]2O`, the RAC at Estrogen receptor [1] worked out at 0.38. On Estrogen receptor [2], this molecule returned an Activity of 90%. Also, the Covalent binding result at Estrogen receptor [3] was “inactive”. For the same molecule, the EC50 at Estrogen receptor [4] stood at 110 nM.
The molecule `Cc1ccc(S(=O)(=O)OCCCCCCCCCC[C@H]2C[C@]3(C)[C@@H](O)CC[C@H]3[C@@H]3CCc4cc(O)ccc4[C@@H]23)cc1` came in with an RAC on Estrogen receptor [1] of 2.59. Moreover, the Covalent binding at Estrogen receptor [6] is less than 10. Further, the concentration for half-maximal inhibition (IC50) against Estrogen receptor [5] is reported as 4 nM.
